Calls of active or inactive are those of the source. Bounds are passed on as bounds.

The record followed here is ChEMBL document CHEMBL1201862, “PubChem BioAssay data set” (2004).

Assay [1] has as its target Eukaryotic translation initiation factor 4E (Mus musculus, UniProt P63073). The experiment in a line: eIF4E–eIF4G protein interaction inhibitors, dose response, biochemical, TR-FRET (AID 855).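 Further: potency for disrupting eIF4E binding to eIF4GI seen as loss of FRET.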 It counts as functional.
In assay [2] the target is T1, SUMO-activating enzyme (Homo sapiens, UniProt Q9UBT2). Nature of the assay: inhibitors of in vitro SUMOylation cascade, primary screen, biochemical, HTRF, uHTS (AID 2006). The assay is classed as protein-complex assay.
The target of assay [3] is Genome polyprotein (Hepatitis C virus, UniProt Q2Q167). The experiment in a line: HCV core protein dimerization inhibitors, dose response, biochemical, TR-FRET (AID 2159).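 Further: blocks dimerization of HCV core protein measured by TR-FRET between tagged core106 pairs.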 Set-up: species or system Hepacivirus hominis. (In general: TR-FRET usually uses a lanthanide donor and a delayed reading to cut background.)
The target of assay [4] is T1, SUMO-activating enzyme. Nature of the assay: SUMOylation inhibitor hit validation, confirmation, SUMOylation inhibitor project, biochemical, AlphaScreen (AID 2018). It counts as functional.
Assay [5] addresses Induced myeloid leukemia cell differentiation protein Mcl-1 (Homo sapiens, UniProt Q07820). The assay is classed as functional.
In assay [6] the target is T2, Carboxy-terminal domain RNA polymerase II polypeptide A small phosphatase 1 (Homo sapiens, UniProt Q9GZU7).
T2 sequence (Q9GZU7 whole entry): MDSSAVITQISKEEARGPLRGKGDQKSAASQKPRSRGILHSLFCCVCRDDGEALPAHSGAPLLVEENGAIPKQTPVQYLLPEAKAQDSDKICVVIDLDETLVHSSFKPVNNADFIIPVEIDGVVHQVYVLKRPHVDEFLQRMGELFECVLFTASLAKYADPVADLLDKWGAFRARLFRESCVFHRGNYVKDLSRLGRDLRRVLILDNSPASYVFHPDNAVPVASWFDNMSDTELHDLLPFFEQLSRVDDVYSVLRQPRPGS
The experiment in a line: inhibitors of CTDSP1, concentration-response testing, biochemical assay, absorbance-based, actives from ultra-high-throughput screening (AID 540297). The assay is classed as functional.

Assay [7] addresses E3 ubiquitin-protein ligase Mdm2 (Homo sapiens, UniProt Q00987). Nature of the assay: enhancers of MDM2-luciferase reporter signal, concentration-effect titration, project on inhibitors of MDM2 ubiquitin ligase, cellular assay, luminescent readout, 384-well plate format (AID 1394).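 Further: MDM2 E3 inhibitors raise luminescence so EC50 is for signal enhancement.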 The assay is classed as functional. On the technique in general: A reporter such as luciferase makes a cellular process visible.

The target of assay [8] is Mitogen-activated protein kinase 10 (Homo sapiens, UniProt P53779). Nature of the assay: Dose response biochemical screening assay for inhibitors of c-Jun N-Terminal Kinase 3 (JNK3). [Related pubchem assays: 746 ].
Assay [9] concerns H9c2. Nature of the assay: cells. It counts as functional, cell-based. To be noted: Rattus norvegicus, H9c2, Myocardium.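 Further: confirmatory concentration-response retest of ultra-high-throughput screening hits for modulation of myocardial damage; cell death induced by hydrogen peroxide oxidative stress; compound pretreatment for 60 min then peroxide exposure for 2 h; potency is for protecting the cells against peroxide damage rather than for killing them.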
Assay [10] can be described thus: cells.
Assay [11] deals with Major prion protein (Homo sapiens, UniProt P04156). The assay is classed as functional, cell-based.
Assay [12] deals with T3, RNA-binding protein pos-1 (Caenorhabditis elegans, UniProt G5EF15).
T3 sequence (G5EF15 whole entry): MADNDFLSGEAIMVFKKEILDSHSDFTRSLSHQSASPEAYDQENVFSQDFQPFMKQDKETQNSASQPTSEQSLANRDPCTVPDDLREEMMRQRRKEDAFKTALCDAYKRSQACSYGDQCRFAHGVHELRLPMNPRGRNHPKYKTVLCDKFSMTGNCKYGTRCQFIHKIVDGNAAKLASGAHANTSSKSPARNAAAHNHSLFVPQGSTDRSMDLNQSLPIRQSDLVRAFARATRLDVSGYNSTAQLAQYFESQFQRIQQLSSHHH
Nature of the assay: inhibitors of POS-1/mex-3 RNA binding, dose response, biochemical, fluorescence polarization (AID 1964).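 Further: purified POS-1 fused to maltose binding protein made in E. coli; potency of compounds blocking POS-1 binding to fluorescent RNA.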 On the technique in general: Fluorescence polarisation rises when a labelled molecule tumbles more slowly, as on binding a larger partner.

Assay [13] addresses Phospholipase A2 (Homo sapiens, UniProt P04054). It counts as functional.
In assay [14] the target is DNA (cytosine-5)-methyltransferase 1 (Homo sapiens, UniProt P26358). Nature of the assay: DNMT1 methyltransferase inhibitors, confirmation, biochemical, fluorescent molecular beacon (AID 602386). It counts as functional.
Assay [15] deals with T4, Aminopeptidase N (Plasmodium falciparum FcB1/Columbia, UniProt O96935).
T4 sequence (O96935 whole entry): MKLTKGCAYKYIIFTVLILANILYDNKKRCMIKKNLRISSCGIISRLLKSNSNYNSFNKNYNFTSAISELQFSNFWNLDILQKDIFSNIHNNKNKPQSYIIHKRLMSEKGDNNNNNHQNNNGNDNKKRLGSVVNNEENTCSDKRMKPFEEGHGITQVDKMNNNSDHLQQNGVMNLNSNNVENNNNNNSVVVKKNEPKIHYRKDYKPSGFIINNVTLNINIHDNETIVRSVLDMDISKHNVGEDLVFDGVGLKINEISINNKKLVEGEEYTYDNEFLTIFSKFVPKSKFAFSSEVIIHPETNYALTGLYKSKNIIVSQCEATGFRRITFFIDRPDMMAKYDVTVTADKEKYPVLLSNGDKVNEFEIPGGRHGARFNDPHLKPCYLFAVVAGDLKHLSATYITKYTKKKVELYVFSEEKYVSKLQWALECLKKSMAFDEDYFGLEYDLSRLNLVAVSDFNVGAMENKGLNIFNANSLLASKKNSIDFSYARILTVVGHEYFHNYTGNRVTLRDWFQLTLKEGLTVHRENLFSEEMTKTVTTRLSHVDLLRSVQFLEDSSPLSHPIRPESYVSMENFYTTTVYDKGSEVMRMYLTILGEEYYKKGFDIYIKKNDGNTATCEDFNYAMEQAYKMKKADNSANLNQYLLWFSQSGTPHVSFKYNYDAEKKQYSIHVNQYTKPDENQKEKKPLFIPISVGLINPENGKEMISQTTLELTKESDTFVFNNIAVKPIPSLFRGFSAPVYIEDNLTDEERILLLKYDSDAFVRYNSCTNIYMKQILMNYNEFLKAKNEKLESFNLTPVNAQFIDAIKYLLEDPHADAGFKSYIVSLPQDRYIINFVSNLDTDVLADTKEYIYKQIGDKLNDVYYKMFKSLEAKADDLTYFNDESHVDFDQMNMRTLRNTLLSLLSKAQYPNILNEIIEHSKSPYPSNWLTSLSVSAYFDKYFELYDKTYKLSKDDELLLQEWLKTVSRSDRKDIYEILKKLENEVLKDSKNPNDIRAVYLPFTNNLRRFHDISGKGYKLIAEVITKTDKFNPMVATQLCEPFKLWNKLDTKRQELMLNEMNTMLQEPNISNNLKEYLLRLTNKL
Nature of the assay: P. falciparum M1AAP inhibitors, biochemical, fluorogenic H-Leu-NHMec substrate, 1536-well (AID 1445). Set-up: species or system Plasmodium falciparum 3D7, 3D7.

Assay [16] has as its target Bifunctional protein GlmU (Mycobacterium tuberculosis, UniProt P9WMN3). Nature of the assay: Inhibitors of Mycobacterial Glucosamine-1-phosphate acetyl transferase (GlmU). Secondary screen. On the set-up: species or system Mycobacterium tuberculosis H37Rv.
The target of assay [17] is T5, Cysteine protease ATG4B (Homo sapiens, UniProt Q9Y4P1).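 Further: Fluorescence-based dose-response confirmation assay measuring inhibition of ATG4B activity.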
T5 sequence (Q9Y4P1 whole entry): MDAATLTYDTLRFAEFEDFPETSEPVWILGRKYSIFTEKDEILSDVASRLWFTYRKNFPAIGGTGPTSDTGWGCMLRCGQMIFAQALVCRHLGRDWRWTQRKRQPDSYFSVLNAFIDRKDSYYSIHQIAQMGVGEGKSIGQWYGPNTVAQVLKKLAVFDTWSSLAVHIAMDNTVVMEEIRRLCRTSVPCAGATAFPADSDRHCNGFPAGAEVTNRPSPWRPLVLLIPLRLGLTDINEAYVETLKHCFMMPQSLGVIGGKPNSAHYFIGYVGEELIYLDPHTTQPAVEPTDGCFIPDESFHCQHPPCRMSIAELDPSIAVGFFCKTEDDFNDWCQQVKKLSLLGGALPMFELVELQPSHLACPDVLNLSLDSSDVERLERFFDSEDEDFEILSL
The assay is classed as functional.

Assay [18] addresses T6, Zinc finger protein mex-5 (Caenorhabditis elegans, UniProt Q9XUB2).
T6 sequence (Q9XUB2 whole entry): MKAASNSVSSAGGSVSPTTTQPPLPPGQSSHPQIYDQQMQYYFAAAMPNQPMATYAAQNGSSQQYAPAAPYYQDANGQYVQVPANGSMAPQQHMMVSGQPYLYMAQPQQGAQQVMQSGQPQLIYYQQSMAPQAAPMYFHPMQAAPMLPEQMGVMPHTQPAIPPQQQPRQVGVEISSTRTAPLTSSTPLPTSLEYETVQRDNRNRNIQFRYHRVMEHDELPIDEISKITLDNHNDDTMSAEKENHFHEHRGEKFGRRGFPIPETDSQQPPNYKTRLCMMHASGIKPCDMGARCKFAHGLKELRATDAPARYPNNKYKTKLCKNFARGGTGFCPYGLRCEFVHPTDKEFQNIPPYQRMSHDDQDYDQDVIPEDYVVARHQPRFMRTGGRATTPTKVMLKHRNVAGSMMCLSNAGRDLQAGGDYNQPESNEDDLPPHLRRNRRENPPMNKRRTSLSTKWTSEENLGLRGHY
Nature of the assay: MEX-5/TCR-2 RNA interaction inhibitors, dose response, biochemical, C. elegans, fluorescence polarization (AID 1960).

Assay [19] can be described thus: M. tuberculosis growth inhibition, HTS (AID 449762). The assay is classed as functional.
Assay [20] concerns the target T7, Rac GTPase-activating protein 1 (Homo sapiens, UniProt Q9H0H5).
T7 sequence (Q9H0H5 whole entry): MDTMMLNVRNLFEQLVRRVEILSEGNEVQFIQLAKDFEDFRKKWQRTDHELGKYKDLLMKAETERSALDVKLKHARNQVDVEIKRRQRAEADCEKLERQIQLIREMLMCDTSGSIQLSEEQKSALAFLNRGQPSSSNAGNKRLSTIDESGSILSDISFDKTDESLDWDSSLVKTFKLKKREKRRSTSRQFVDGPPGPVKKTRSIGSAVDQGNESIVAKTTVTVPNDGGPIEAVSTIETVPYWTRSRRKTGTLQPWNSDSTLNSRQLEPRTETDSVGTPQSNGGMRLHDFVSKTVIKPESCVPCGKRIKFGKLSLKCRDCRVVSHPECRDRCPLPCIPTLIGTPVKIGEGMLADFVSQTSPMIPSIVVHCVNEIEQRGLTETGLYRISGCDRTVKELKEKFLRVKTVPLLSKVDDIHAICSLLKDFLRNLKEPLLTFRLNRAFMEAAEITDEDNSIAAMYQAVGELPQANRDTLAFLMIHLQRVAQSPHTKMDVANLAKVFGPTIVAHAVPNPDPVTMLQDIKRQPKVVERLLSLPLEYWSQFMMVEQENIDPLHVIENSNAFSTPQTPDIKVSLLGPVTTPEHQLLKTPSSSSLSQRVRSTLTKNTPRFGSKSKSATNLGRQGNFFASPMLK
Nature of the assay: MgcRacGAP GTPase-activating activity inhibitors, confirmation, biochemical, ADP Hunter fluorescence, primary and confirmatory (AID 624330). It counts as functional.

Assay [21] deals with Heat shock protein HSP 90-alpha (Homo sapiens, UniProt P07900). Nature of the assay: Luminescence-based dose response biochemical high throughput screening assay for inhibitors of the Heat Shock Protein 90 (HSP90). [Related pubchem assays: 1831 (Summary AID.), 1846 (Confirmation screen.), 1789 (Primary screen.)].
Assay [22] deals with T8, Heat shock factor protein 1 (Mus musculus, UniProt P38532).
T8 sequence (P38532 whole entry): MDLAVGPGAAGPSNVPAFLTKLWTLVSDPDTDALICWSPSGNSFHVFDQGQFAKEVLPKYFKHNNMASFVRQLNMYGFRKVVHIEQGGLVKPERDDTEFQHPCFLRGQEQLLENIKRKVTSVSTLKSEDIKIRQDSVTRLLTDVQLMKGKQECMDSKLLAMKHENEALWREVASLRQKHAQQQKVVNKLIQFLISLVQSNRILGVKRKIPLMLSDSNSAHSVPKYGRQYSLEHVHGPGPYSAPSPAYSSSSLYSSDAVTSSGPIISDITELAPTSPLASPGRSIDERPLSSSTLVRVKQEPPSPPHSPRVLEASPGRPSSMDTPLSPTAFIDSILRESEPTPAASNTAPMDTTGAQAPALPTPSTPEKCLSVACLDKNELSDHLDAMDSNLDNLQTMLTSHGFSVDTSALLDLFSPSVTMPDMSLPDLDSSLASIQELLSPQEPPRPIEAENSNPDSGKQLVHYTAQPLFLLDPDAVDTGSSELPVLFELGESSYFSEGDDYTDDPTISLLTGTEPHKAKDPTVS
Nature of the assay: HSF1 potentiators in luciferase reporter cells, confirmation, cell-based, NIH3T3, luminescence, dose retest (AID 435004).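 Further: stress induced by proteasome inhibitor MG132 added 30 min after compound; luciferase reporter driven by HSF1 response element in NIH3T3 cells; actives raise luminescence as potentiators of the MG132 stress response.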 It counts as functional.

The IC50 is the concentration that inhibits the measured activity by half. On to `O=C(Nc1nccs1)c1cc(-c2ccco2)nc2ccccc12`, for which the IC50 was > 64 µM (inactive) in assay [1]; 24.2 µM (active) in assay [2]; > 49.8 µM (not active) in [3]; 6.87 µM (active) in assay [4]; 2.5 µM (active) in [5]; 3.98 µM (active) in assay [6].
For orientation: EC50 means the concentration giving half of the maximal effect. Regarding `Cc1nc(CSc2nsc(/C=C/N(C)C)c2C#N)cs1`, the EC50 in [7] is 19.8 µM (not active).
In the case of `Brc1ccc(-c2nn3c(-c4ccco4)nnc3s2)o1`, the half-maximal inhibitory concentration (IC50) was 58 µM (not active) in [8], > 79 µM (inactive) in [9], > 138 µM (inactive) in [10] and 4.14 µM (active) in assay [11].
On to `O=C(O)c1ccc(-c2ccc(/C=C3\NC(=O)N(Cc4ccc(Cl)cc4)C3=O)o2)cc1Cl`, for which the values for the 50% effective concentration (EC50) in assay [12] and in [18] were 29.4 µM (active) and 23.5 µM (active), respectively. The IC50 in assay [13] is 16.1 µM (active); in assay [14], 4.54 µM (active); in assay [15], 40.8 µM (active); in assay [16], 67.1 µM (active); in assay [17], 16.2 µM (active).
`COc1ccc(NC(=O)ON=C2c3ccccc3-c3ccccc32)cc1`: the IC50 in [19] was > 100 µM (active).
As for `CCCOC(=O)c1ccc(O)c(OC)c1`, the 50% effective concentration (EC50) in assay [7] was 468 µM (not active). The IC50 in assay [20] is 127 µM (active).
As for `CCOC(=O)c1csc(NC(=O)c2cc3ccccc3o2)n1`, the IC50 in assay [21] is 784 nM (active).
Consider `C/C(=N/Cc1ccco1)C1=C(O)c2ccccc2C1=O`, for which, in [8], the IC50 was 30.9 µM (not active). Further, in [22], the EC50 is > 260 µM (inactive).
As for `Nc1cc(-c2ccccc2)ccc1O`, the IC50 in assay [21] is 3390 nM (active).
